Experimental data reported in PubChem BioAssay AID248 (DTP/NCI, 2004).
Several values for one entry are separate records, joined by “and”; a condition that tells them apart may be missing. Identical values can stand only once. Toxic doses and inconclusive results are not listed.

System: L1210 leukemia ip in BDF1 mice, survival T/C
Assay: NCI In Vivo Anticancer Drug Screen. Data for tumor model L1210 Leukemia (intraperitoneal) in B6D2F1 (BDF1) mice
Details: endpoint: mean survival time, higher = longer survival
Outline: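 Each compound was tested against a transplantable tumor grown in mice. The endpoint was survival, with treated animals benchmarked against vehicle controls as a simple ratio.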

[1] = dose: 100.0 mg/kg/injection, schedule: Q01DX001 (ip), vehicle: saline
[2] = dose: 200.0 mg/kg/injection, schedule: Q01DX001 (ip), vehicle: saline
[3] = dose: 400.0 mg/kg/injection, schedule: Q01DX001 (ip), vehicle: saline
[4] = dose: 100.0 mg/kg/injection, schedule: Q01DX001 (ip), vehicle: saline with Tween-80
[5] = dose: 200.0 mg/kg/injection, schedule: Q01DX001 (ip), vehicle: saline with Tween-80

## CS(=O)(=O)Nc1ccc(Nc2c3ccccc3nc3cc([N+](=O)[O-])ccc23)cc1
dose: 0.02 mg/kg/injection, schedule: Q01DX009 (ip), vehicle: saline
  T/C: 118 % of control
dose: 0.1 mg/kg/injection, schedule: Q01DX009 (ip), vehicle: acetone
  T/C: 119 % of control
dose: 0.15 mg/kg/injection, schedule: Q01DX009 (ip), vehicle: acetone
  T/C: 112 % of control
dose: 0.16 mg/kg/injection, schedule: Q01DX009 (ip), vehicle: saline
  T/C: 153 % of control
dose: 0.6 mg/kg/injection, schedule: Q01DX001 (ip), vehicle: acetone
  T/C: 116 % of control
dose: 0.82 mg/kg/injection, schedule: Q01DX009 (ip), vehicle: acetone
  T/C: 151 % of control
dose: 1.25 mg/kg/injection, schedule: Q01DX009 (ip), vehicle: saline
  T/C: 164 % of control
dose: 1.25 mg/kg/injection, schedule: Q01DX009 (sc), vehicle: Klucel (hydroxypropylcellulose) (HPC)
  T/C: 113 % of control
dose: 1.56 mg/kg/injection, schedule: Q04DX003 (ip), vehicle: saline
  T/C: 107 % of control
dose: 2.5 mg/kg/injection, schedule: Q01DX009 (ip), vehicle: saline
  T/C: 156 % of control and 220 % of control
dose: 2.5 mg/kg/injection, schedule: Q01DX009 (sc), vehicle: Klucel (hydroxypropylcellulose) (HPC)
  T/C: 118 % of control
dose: 3.12 mg/kg/injection, schedule: Q04DX003 (ip), vehicle: saline
  T/C: 107 % of control
dose: 3.13 mg/kg/injection, schedule: Q01DX001 (ip), vehicle: saline
  T/C: 151 % of control
dose: 5.0 mg/kg/injection, schedule: Q01DX009 (ip), vehicle: saline
  T/C: 184 % of control
dose: 6.25 mg/kg/injection, schedule: Q01DX001 (ip), vehicle: saline
  T/C: 159 % of control
dose: 6.25 mg/kg/injection, schedule: Q04DX003 (ip), vehicle: saline
  T/C: 107 % of control
dose: 10.0 mg/kg/injection, schedule: Q01DX009 (sc), vehicle: Klucel (hydroxypropylcellulose) (HPC)
  T/C: 195 % of control
dose: 12.5 mg/kg/injection, schedule: Q01DX001 (ip), vehicle: saline
  T/C: 161 % of control
dose: 25.0 mg/kg/injection, schedule: Q01DX001 (ip), vehicle: saline
  T/C: 240 % of control
[1]
  T/C: 168 % of control

## O=C(C#Cc1ccccc1)/C=C/c1ccccc1
dose: 100.0 mg/kg/injection, schedule: Q04DX003 (ip), vehicle: Klucel (hydroxypropylcellulose) (HPC)
  T/C: 88 % of control
dose: 200.0 mg/kg/injection, schedule: Q04DX003 (ip), vehicle: Klucel (hydroxypropylcellulose) (HPC)
  T/C: 98 % of control

## CC(CC(C)(C)C(C)(C)C)C(C)(C)C (stereo not given)
[1]
  T/C: 90 % of control
[2]
  T/C: 100 % of control
[3]
  T/C: 107 % of control

## CCOC(=O)c1cnc(SC)nc1NNc1ccc([N+](=O)[O-])cc1
[4]
  T/C: 90 % of control
[5]
  T/C: 92 % of control

## O=C(O)C1CCCN1O (stereo not given)
[1]
  T/C: 104 % of control
[2]
  T/C: 98 % of control
[3]
  T/C: 98 % of control

## CCCCCCCCCCCCCCNCCC(=O)O
dose: 37.5 mg/kg/injection, schedule: Q04DX003 (ip), vehicle: saline
  T/C: 102 % of control
dose: 75.0 mg/kg/injection, schedule: Q04DX003 (ip), vehicle: saline
  T/C: 101 % of control
dose: 150.0 mg/kg/injection, schedule: Q04DX003 (ip), vehicle: saline
  T/C: 102 % of control

## CN1CCN(Cc2c(O)ccc3c4c(c(=O)oc23)CCCC4)CC1
dose: 100.0 mg/kg/injection, schedule: Q01DX001 (ip), vehicle: carboxymethylcellulose (CMC)
  T/C: 98 % of control
dose: 200.0 mg/kg/injection, schedule: Q01DX001 (ip), vehicle: carboxymethylcellulose (CMC)
  T/C: 93 % of control

## COC(=O)c1cc(C)c(N)cc1C
[1]
  T/C: 96 % of control
[2]
  T/C: 104 % of control
[3]
  T/C: 102 % of control

## Oc1ccc2ccc(O)c(C(NC(O)c3ccccc3)c3ccccc3)c2c1C(NC(O)c1ccccc1)c1ccccc1 (stereo not given)
dose: 10.0 mg/kg/injection, schedule: Q01DX001 (ip), vehicle: saline
  T/C: 96 % of control
dose: 20.0 mg/kg/injection, schedule: Q01DX001 (ip), vehicle: saline
  T/C: 96 % of control
dose: 40.0 mg/kg/injection, schedule: Q01DX001 (ip), vehicle: saline
  T/C: 93 % of control

## CCOc1ccc(N=Cc2cc(Br)ccc2O)cc1
dose: 100.0 mg/kg/injection, schedule: Q04DX002 (ip), vehicle: saline with Tween-80
  T/C: 96 % of control
dose: 200.0 mg/kg/injection, schedule: Q04DX002 (ip), vehicle: saline with Tween-80
  T/C: 100 % of control
dose: 400.0 mg/kg/injection, schedule: Q04DX002 (ip), vehicle: saline with Tween-80
  T/C: 100 % of control

## C(=P(c1ccccc1)(c1ccccc1)c1ccccc1)[P+](c1ccccc1)(c1ccccc1)c1ccccc1.[Br][Cu][Br]
dose: 1.56 mg/kg/injection, schedule: Q01DX009 (ip), vehicle: Klucel (hydroxypropylcellulose) (HPC)
  T/C: 101 % of control
dose: 3.13 mg/kg/injection, schedule: Q01DX009 (ip), vehicle: Klucel (hydroxypropylcellulose) (HPC)
  T/C: 109 % of control
dose: 6.25 mg/kg/injection, schedule: Q01DX009 (ip), vehicle: Klucel (hydroxypropylcellulose) (HPC)
  T/C: 114 % of control

## CC1(C)CC(=O)C(C)(C)C(=O)C1 (tested in a mixture with another compound)
dose: 25.0 mg/kg/injection, schedule: Q04DX002 (ip), vehicle: Klucel (hydroxypropylcellulose) (HPC)
  T/C: 102 % of control
dose: 50.0 mg/kg/injection, schedule: Q04DX002 (ip), vehicle: Klucel (hydroxypropylcellulose) (HPC)
  T/C: 96 % of control
dose: 100.0 mg/kg/injection, schedule: Q04DX002 (ip), vehicle: Klucel (hydroxypropylcellulose) (HPC)
  T/C: 108 % of control

## O=C(NCCN1CCOCC1)c1ccc(C(=O)NCCN2CCOCC2)cc1
[1]
  T/C: 103 % of control
[2]
  T/C: 105 % of control
[3]
  T/C: 100 % of control

## CCCCCCCCCC(=O)Nc1ccccc1CC
dose: 100.0 mg/kg/injection, schedule: Q04DX002 (ip), vehicle: other
  T/C: 116 % of control
dose: 200.0 mg/kg/injection, schedule: Q04DX002 (ip), vehicle: other
  T/C: 105 % of control
dose: 400.0 mg/kg/injection, schedule: Q04DX002 (ip), vehicle: other
  T/C: 101 % of control

## CCCCCCCSc1ncnc2c1ncn2CO
dose: 50.0 mg/kg/injection, schedule: Q01DX009 (ip), vehicle: saline
  T/C: 104 % of control
dose: 80.0 mg/kg/injection, schedule: Q01DX009 (ip), vehicle: saline
  T/C: 107 % of control
[1]
  T/C: 101 % of control
dose: 117.0 mg/kg/injection, schedule: Q01DX009 (ip), vehicle: other
  T/C: 114 % of control
dose: 120.0 mg/kg/injection, schedule: Q01DX009 (ip), vehicle: saline
  T/C: 104 % of control
[2]
  T/C: 95 % of control
[3]
  T/C: 115 % of control
dose: 400.0 mg/kg/injection, schedule: Q01DX009 (ip), vehicle: saline
  T/C: 164 % of control

## CNCCOC
dose: 100.0 mg/kg/injection, schedule: Q04DX002 (ip), vehicle: saline
  T/C: 98 % of control

## Cc1nc(C[N+](C)(C)C)c2cnccn12
dose: 100.0 mg/kg/injection, schedule: Q04DX003 (ip), vehicle: saline
  T/C: 102 % of control

## CC(C)Nc1c(C(=O)c2ccccc2)cn(C(C)C)c1-c1ccccc1
dose: 50.0 mg/kg/injection, schedule: Q01DX009 (ip), vehicle: saline with Tween-80
  T/C: 94 % of control
dose: 100.0 mg/kg/injection, schedule: Q01DX009 (ip), vehicle: saline with Tween-80
  T/C: 91 % of control
dose: 200.0 mg/kg/injection, schedule: Q01DX009 (ip), vehicle: saline with Tween-80
  T/C: 88 % of control

## C=CCC1(CCCC)C(=O)NC(=O)NC1=O
dose: 75.0 mg/kg/injection, schedule: Q01DX001 (ip), vehicle: saline
  T/C: 89 % of control
dose: 150.0 mg/kg/injection, schedule: Q01DX001 (ip), vehicle: saline
  T/C: 105 % of control

## O=[N+]([O-])c1c(Br)sc(Br)c1[N+](=O)[O-]
dose: 2.5 mg/kg/injection, schedule: Q01DX009 (ip), vehicle: Klucel (hydroxypropylcellulose) (HPC)
  T/C: 88 % of control
dose: 2.5 mg/kg/injection, schedule: Q04DX003 (ip), vehicle: Klucel (hydroxypropylcellulose) (HPC)
  T/C: 109 % of control
dose: 5.0 mg/kg/injection, schedule: Q01DX009 (ip), vehicle: Klucel (hydroxypropylcellulose) (HPC)
  T/C: 88 % of control
dose: 5.0 mg/kg/injection, schedule: Q04DX003 (ip), vehicle: Klucel (hydroxypropylcellulose) (HPC)
  T/C: 101 % of control
dose: 10.0 mg/kg/injection, schedule: Q01DX009 (ip), vehicle: Klucel (hydroxypropylcellulose) (HPC)
  T/C: 108 % of control
dose: 10.0 mg/kg/injection, schedule: Q04DX003 (ip), vehicle: Klucel (hydroxypropylcellulose) (HPC)
  T/C: 96 % of control

## CCOC(=O)CCSCCC(=O)OCC
[4]
  T/C: 109 % of control
[5]
  T/C: 101 % of control
dose: 400.0 mg/kg/injection, schedule: Q01DX001 (ip), vehicle: saline with Tween-80
  T/C: 101 % of control
